Laboratory results as given in PubChem BioAssay AID720513 (Broad Institute, 2013).
Records with an inconclusive call do not appear.

Test system: U2OS PGC1a acetylation AlphaLISA, overnight
Test: activators raising PGC1a acetylation in cells, dose response, cell-based, cherry-picked samples, set 6 (AID 720513);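 further: cells made to overexpress flag tagged PGC1a plus GCN5 acetyltransferase by viral infection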

Compared with `Nc1c(C(=O)Nc2ccccc2)sc2ncc([N+](=O)[O-])cc12`, `COc1ccc(CN2CCn3ncc(C(=O)Nc4ccccc4)c3C2=O)cc1` is 13-fold higher in AC40: 1.06 µM for the first, 13.4 µM for the second.

Compared with `C[C@@H]1CN([C@@H](C)CO)C(=O)c2c(c3ccccc3n2C)-c2ccccc2CO[C@@H]1CN(C)C(=O)c1cc(Cl)cc(Cl)c1`, `C[C@@H]1CN([C@H](C)CO)C(=O)c2c(c3ccccc3n2C)-c2ccccc2CO[C@@H]1CN(C)C(=O)[C@H](C)c1ccccc1` is 3.8-fold lower in AC40: 12.7 µM for the first, 3.36 µM for the second.

Compared with `COc1ccc(OC)c(NC(=O)CSc2nnc(-c3cccnc3)s2)c1`, `CCOc1ccccc1NC(=O)CSc1cn[nH]n1` is 3.1-fold higher in AC40: 0.792 µM for the first, 2.47 µM for the second.

Going from `Cc1ccc(Nc2nnc(C)c3ccccc23)c(C)c1` to `COc1ccc(Nc2nnc(C)c3ccccc23)cc1`, the AC40 rises from 2.09 µM to 5.12 µM (2.4-fold).

`Cc1ccc(O)c(C(=O)c2cnc3c(c2)CN(CCC(C)C)C(=O)N3)c1` and `Cc1c(C(=O)OCC(=O)c2c(N)n(CC(C)C)c(=O)n(C)c2=O)oc2ccccc12` are within 1.5-fold of each other in AC40: 10.2 µM for the first, 8.24 µM for the second.

Going from `CC1CC(NS(=O)(=O)c2cccs2)CC(C)(C)C1` (stereo not drawn) to `O=S(=O)(NC12CC3CC(CC(C3)C1)C2)c1ccc(F)cc1`, the AC40 rises from 0.437 µM to 4.02 µM (9.2-fold).

Going from `CCCCN(CCCC)S(=O)(=O)c1ccc2oc(C(=O)N3CCOCC3)c(C)c2c1` to `COc1ccc(S(=O)(=O)N2CCOCC2)cc1NC(=O)CCNC(=O)c1ccc(Cl)cc1`, the AC40 falls from 1.79 µM to 0.772 µM (2.3-fold).

First: O=C1OC(Oc2ccc(Br)cc2)(c2ccccc2)c2ccccc21 (stereo not drawn)
Second: O=C(NN1c2ccccc2CCc2ccccc21)c1ccccc1Br
The AC40 of the first is 3.3-fold lower: 1.46 µM for the first, 4.84 µM for the second.

`Cc1ccc2c(CN(Cc3ccccc3)Cc3ccccc3)cc(=O)oc2c1` and `CCOCCn1c(CN(Cc2ccccc2)Cc2ccccc2)nc2c1c(=O)n(C)c(=O)n2C` are within 1.5-fold of each other in AC40: 6.06 µM for the first, 6.65 µM for the second.

Compared with `Cc1cc(Nc2cccc(Cl)c2)c2ccccc2n1`, `CSc1nc(NCc2ccco2)c2ccccc2n1` is 2-fold higher in AC40: 6.94 µM for the first, 13.6 µM for the second.

`COc1ccc(CN(CCC(C)C)S(=O)(=O)c2ccccc2Br)cc1` and `COc1ccc(Cn2nnnc2C(C(C)C)N(Cc2ccco2)Cc2cccs2)cc1` (stereo not drawn) are within 1.5-fold of each other in AC40: 2.04 µM for the first, 2.6 µM for the second.

`CC1CCN(S(=O)(=O)c2ccc(NC(=O)c3ccccc3F)cc2)CC1` and `C=CCn1c(=NC(=O)c2ccc(S(=O)(=O)N3CCCC3)cc2)sc2cc(NC(C)=O)ccc21` are within 1.5-fold of each other in AC40: 15.3 µM for the first, 12.3 µM for the second.

First: O=C(Cn1c(CN2CCCCC2)nc2ccccc2c1=O)Nc1ccccc1
Second: O=C(CC1SC(=NCc2ccccc2)NC1=O)Nc1ccccc1 (stereo not drawn)
The AC40 of the first is 8.2-fold higher: 5.19 µM for the first, 0.632 µM for the second.

Compared with `CCOc1ccc(-c2nnn(CC#N)n2)cc1OC`, `COc1ccc(-c2nc3c(C)cc(Br)cn3c2Cc2ccc(C)cc2)cc1OC` is 4.2-fold higher in AC40: 1.96 µM for the first, 8.31 µM for the second.

Going from `O=C(Nc1ccc(Nc2ccncc2)cc1)c1ccc([N+](=O)[O-])cc1` to `COC(=O)c1ccc(NC(=O)c2cccnc2)cc1`, the AC40 falls from 3.4 µM to 1.86 µM (1.8-fold).

First: COc1ccc(S(=O)(=O)N2CC[C@@H]3[C@H](CO)Nc4ccc(-c5ccccc5F)cc4[C@@H]32)cc1
Second: COc1ccccc1-c1ccc2c(c1)C(C)(Cc1ccc(OC(F)(F)F)cc1)C(=O)N2 (stereo not drawn)
The AC40 of the first is 5-fold higher: 12.4 µM for the first, 2.47 µM for the second.

`Cc1ccc(S(=O)(=O)CCSC(=N)N)cc1` and `Cc1ccc(S(=O)(=O)N(Cc2ccc(F)cc2)Cc2ccco2)cc1` are within 1.5-fold of each other in AC40: 5.17 µM for the first, 6.76 µM for the second.

`CCOC(=S)SCC(=O)Nc1nc(C)c(C)s1` and `Cc1csc(NC(=O)CSc2nsc(SCC(=O)Nc3nc(C)cs3)c2C#N)n1` are within 1.5-fold of each other in AC40: 3.58 µM for the first, 4.36 µM for the second.

Going from `O=C(C[C@H]1CC[C@H]2[C@@H](COC[C@@H](O)CN2C(=O)c2cc(Cl)cc(Cl)c2)O1)N1CCc2ccccc2C1` to `Cc1ccc(NC(=O)CN2CCC(NC(=O)Cc3ccccc3)CC2)c(C)c1`, the AC40 falls from 9.14 µM to 0.507 µM (18-fold).

Going from `CCOC(=O)C1=CC[C@@H](c2ccc(F)cc2)N(S(=O)(=O)c2ccc(C)cc2)[C@H]1c1ccccc1` to `COc1ccc([C@H]2/C=C\CN(S(=O)(=O)/C=C/c3ccccc3)[C@@H](C)C(=O)N2Cc2ccc(F)cc2)cc1`, the AC40 rises from 3.22 µM to 5.99 µM (1.9-fold).

Going from `CCCCN(CC)CCCNC(=O)c1cc2c(=O)n(CC)c3ccccc3c2s1` to `CCN(CC)CCCn1c(=S)[nH]c2cc(Cl)ccc2c1=O`, the AC40 falls from 1.26 µM to 0.631 µM (2-fold).

First: O=C(Nc1ccccc1)C1=C[C@@H](c2ccc(C(F)(F)F)cc2)C[C@@H](OCc2ccc(CO)cc2)O1
Second: O=C(NC(Nc1cc(C(F)(F)F)ccc1Cl)C(=O)c1ccccc1)c1ccccc1 (stereo not drawn)
The AC40 of the first is lower: less than 2.6 µM for the first, 13.6 µM for the second.

Compared with `CCCCN=C1NC(=O)C(CC(=O)Nc2ccc(Cl)cc2)S1` (stereo not drawn), `CCC(=O)Nc1ccc(C(=O)Cn2ncc(Cl)c(Cl)c2=O)cc1` is 2.2-fold lower in AC40: 3.53 µM for the first, 1.63 µM for the second.

First: CC(Oc1ccc(Cl)cc1Cl)c1nc(-c2ccc(NC(=O)c3cccnc3)cc2)no1 (stereo not drawn)
Second: O=C(COc1ccc(Cl)cc1)NCCCNC(=O)c1cccnc1
The AC40 of the first is 2.1-fold lower: 0.581 µM for the first, 1.22 µM for the second.

Compared with `COc1ccc(C(c2ccc(OC)cc2)C(Cl)(Cl)Cl)cc1`, `COc1ccc(C(C)(O)c2nc(-c3ccc(S(C)(=O)=O)cc3)cs2)cc1` (stereo not drawn) is 11-fold higher in AC40: 0.729 µM for the first, 7.7 µM for the second.

Going from `C=CCn1c(SCC(=O)NC(=O)NCc2ccco2)nc2sc(CC)cc2c1=O` to `O=C(CSc1nc2c(sc3ccccc32)c(=O)n1CCc1ccccc1)NCc1ccco1`, the AC40 rises from 11.3 µM to 18.1 µM (1.6-fold).

`COc1ccc(C(c2nnnn2C2CCCCC2)N2CCC3(CC2)C(=O)NCN3c2ccccc2)cc1` (stereo not drawn) and `CSCCC(c1nnnn1-c1c(C)cccc1C)N1CCC2(CC1)C(=O)NCN2c1ccccc1` (stereo not drawn) are within 1.5-fold of each other in AC40: 3.46 µM for the first, 4.64 µM for the second.

Compared with `COc1cc(CNC(=O)c2cc(-c3cc(C)cc(F)c3)n[nH]2)cc(OC)c1`, `COc1ccc(-c2c(-c3cc(OC)cc(OC)c3)n(C)c3ccc(-c4cnc(N)nc4)cc23)cc1` is 16-fold lower in AC40: 15.8 µM for the first, 0.974 µM for the second.

`CCOC(=O)c1c(CN2CCN(CC#N)CC2)n(C)c2cc(Br)c(OC)cc12` and `N#Cc1ccccc1S(=O)(=O)N1CCN(Cc2cc3c(cc2Br)OCCO3)CC1` are within 1.5-fold of each other in AC40: 0.701 µM for the first, 0.934 µM for the second.

First: C[C@@H]1CN([C@H](C)CO)C(=O)c2cccc(NC(=O)c3ccc(-c4nccs4)cc3)c2O[C@@H]1CN(C)Cc1ccc(C(=O)Nc2ccccc2N)cc1
Second: COc1ccc(C#Cc2cnc3c(c2)C(=O)N([C@H](C)CO)C[C@H](C)[C@H](CN(C)S(=O)(=O)c2cccc(F)c2)O3)cc1OC
The AC40 of the first is lower: less than 0.16 µM for the first, 18.8 µM for the second.

Compared with `CNC(=O)c1nnsc1S(=O)c1ccc(Cl)cc1` (stereo not drawn), `Cc1ccccc1NC(=O)c1nc(S(C)(=O)=O)ncc1Cl` is 2-fold lower in AC40: 1.96 µM for the first, 0.992 µM for the second.

Compared with `Cc1ccc(-n2cccn2)c(CN2CCCC(C(=O)c3sccc3C)C2)c1` (stereo not drawn), `O=C(NCc1cccs1)c1ccc(Cl)c(S(=O)(=O)N2CCCC2)c1` is 2.6-fold lower in AC40: 9.08 µM for the first, 3.54 µM for the second.

First: OC(COc1ccc(CNCCc2ccc(C(F)(F)F)cc2)cc1)CN1CCCCC1 (stereo not drawn)
Second: CCOc1ccc(NC(=O)CN2CCC(n3cnc4cc(F)ccc43)CC2)cc1
The AC40 of the first is 3.2-fold lower: 0.9 µM for the first, 2.84 µM for the second.

`CCOC(=O)c1ccccc1NS(=O)(=O)c1ccc(OCC)cc1` and `CCOc1ccc(N(C)S(=O)(=O)c2cc(-c3cc(C)no3)ccc2C(C)C)cc1` are within 1.5-fold of each other in AC40: 3.3 µM for the first, 2.97 µM for the second.

`COC(=O)CSc1nc(-c2ccccc2)cc(-c2ccco2)c1C#N` and `O=C1CC(Sc2nnc(-c3ccccc3O)o2)C(=O)N1c1ccccc1` (stereo not drawn) are within 1.5-fold of each other in AC40: 6.11 µM for the first, 7.23 µM for the second.

Compared with `Cc1cc(C(=O)NNS(=O)(=O)c2ccccc2C(F)(F)F)nn1C(C)(C)C`, `Cc1cc(C)c2c(-n3cccc3)c(C(=O)NNS(=O)(=O)c3ccccc3)sc2n1` is 4.6-fold higher in AC40: 1.04 µM for the first, 4.82 µM for the second.

Going from `COc1ccccc1/C=C1\SC(=S)N(CCC(=O)NCCCn2ccnc2)C1=O` to `O=C(CCCCCN1C(=O)c2cccc3cccc(c23)C1=O)NCc1cccnc1`, the AC40 falls from 2.88 µM to 0.207 µM (14-fold).

First: C[n+]1c2n(c3ccccc31)N=C(c1cc(C(C)(C)C)c(O)c(C(C)(C)C)c1)CS2
Second: CCOC(=O)CNS(=O)(=O)c1cc(-c2nnc(Nc3ccc4c(c3)OCO4)c3ccccc23)ccc1C
The AC40 of the first is 2.7-fold higher: 3.5 µM for the first, 1.29 µM for the second.

First: O=C1NC(=Nc2ccccc2Cl)S/C1=C\c1cccc([N+](=O)[O-])c1O
Second: CC1(Cc2ccc(Cl)cc2)C(=O)Nc2c(Cl)ccc(Cl)c21 (stereo not drawn)
The AC40 of the first is 2.3-fold higher: 10.6 µM for the first, 4.52 µM for the second.

First: Fc1ccc(CN(Cc2ccccc2)C(c2cccs2)c2nnnn2C2CCCCC2)cc1 (stereo not drawn)
Second: CC(C)C(c1nnnn1Cc1ccccc1)N(Cc1ccco1)Cc1cccs1 (stereo not drawn)
The AC40 of the first is 14-fold higher: 12.7 µM for the first, 0.907 µM for the second.

Compared with `O=C(NCc1ccccc1)c1ccc(NC(=O)C2CC2)cc1`, `CCC(CC)C(=O)c1c[nH]c(C(=O)NCc2ccccc2)c1` is 16-fold lower in AC40: 11.1 µM for the first, 0.689 µM for the second.

`Nc1ccccc1Oc1ncc(C(F)(F)F)cc1Cl` and `Cc1csc(NC(=O)NC2(C(F)(F)F)Oc3ccccc3O2)n1` are within 1.5-fold of each other in AC40: 7.04 µM for the first, 6.24 µM for the second.

First: CCOc1ccccc1N(C)C(=O)C1CCN(S(=O)(=O)c2cccc3nonc23)CC1
Second: CC1CCCCN1C(=O)/C(=C\c1ccccc1)c1ccccc1 (stereo not drawn)
The AC40 of the first is 2.6-fold lower: 3.29 µM for the first, 8.57 µM for the second.

Going from `O=S(=O)(c1cccc(F)c1)N1CCN(Cc2cc3c(cc2Br)OCCO3)CC1` to `O=C1Nc2cc(S(=O)(=O)N3CCCC3)ccc2N2CCCC12` (stereo not drawn), the AC40 rises from 0.411 µM to 16.6 µM (40-fold).

`O=C(c1cc(C2CC2)on1)N1CCCC(N2CCN(c3cccc(C(F)(F)F)c3)CC2)C1` (stereo not drawn) and `O=S1(=O)CCOC[C@H](CC2CCCCC2)N1Cc1ccc(F)cc1` are within 1.5-fold of each other in AC40: 10.8 µM for the first, 9.18 µM for the second.

First: C=CCS(=O)(=O)c1nc2ccccc2s1
Second: CC(C)c1ccc(NC(=O)c2ccc3c(c2)CCN3S(C)(=O)=O)cc1
The AC40 of the first is 4.6-fold lower: 2.99 µM for the first, 13.9 µM for the second.

First: Cc1ccc(CNC(=O)C2CC(c3ccc([N+](=O)[O-])cc3)=NO2)cc1 (stereo not drawn)
Second: CCOC(=O)c1ccc(NC(=O)Nc2ccc(F)cc2)cc1
The AC40 of the first is 4-fold lower: 4 µM for the first, 16.2 µM for the second.

First: COc1cc2nc(SCc3c(C)noc3C)n(CCC3=CCCCC3)c(=O)c2cc1OC
Second: OCc1ccc2c(c1)c(-c1ccc3c(c1)OCCO3)c(-c1ccccc1)n2-c1ccccc1
The AC40 of the first is 14-fold higher: 2.51 µM for the first, 0.184 µM for the second.

First: COc1cccc(CN2C[C@@H]3N[C@H](C2)C3c2ccc(-c3cccc(C#N)c3)cc2)c1 (stereo partly drawn)
Second: CN(C)CC(O)c1ccc(C=Cc2ccc(Cl)cc2)cc1 (stereo not drawn)
The AC40 of the first is 3.1-fold higher: 10 µM for the first, 3.19 µM for the second.
